“Also recorded” adds a separate entry of the source.

Data set [1] deals with NT2 cells. As to the kind of experiment: Flow cytometry of NT2 cells (cell cycle). The class given is cell-based, human. The note with it: 25 μM, 12 days of treatment. The method, then: Human NT2 precursor (Ntera2/D 1 teratocarcinoma) cells were obtained from Stratagene (La Jolla, Calif., USA) and cultured following the instructions of the supplier. […] After trypsinization, the cells were collected, suspended (1-2×10^6 cells in 0.1 ml citrate/DMSO solution), stained with a solution containing propidium iodide (50 μg/ml) and RNase (10 μg/ml), and subjected to flow cytometric analysis in an FACS Scan flow cytometer (Becton Dickinson, Menlo Park, Calif., USA) equipped with a Modfit software program (Vindelov et al., Cytometry, 3, 332 (1983)).

The subject of another data set is rat PC12 neuronal cells. As to the kind of experiment: MTT assay, Aβ1-42-induced cytotoxicity in PC12 cells (Example I).
The target of another data set is T1, Aβ (Homo sapiens, UniProt P05067).
T1 construct: Aβ1-42 peptide was purchased from American Peptide Co; purchased American Peptide Co. (Sunnyvale, Calif.)
As to the kind of experiment: CPBBA displacement of radiolabeled 22R-hydroxycholesterol from Aβ (Example II). The note with it: 100 μM unlabeled compound; 50 μM Aβ. It counts as binding. The method, then: At the end of the incubation time, samples were separated by 1.5% agarose (Type I-B) gel electrophoresis under native conditions and transferred to nitrocellulose membrane (Schleicher&Schuell, Keene, N.H.) in 10×SSC buffer. The membrane was exposed to tritium-sensitive screen and analyzed by phosphoimaging using the Cyclone Storage phosphor system (Packard BioScience). Image-densitometric analysis was performed using the OptiQuant software (Packard BioScience). […] Low molecular weight unincorporated 22R-hydroxycholesterol and derivatives are separated and eliminated during electrophoresis.

A further data set deals with T2, Aβ17-40 (Homo sapiens, UniProt P05067).
T2 construct: purchased American Peptide Co. (Sunnyvale, Calif.)
The data set can be described thus: CPBBA, Aβ17-40. The class given is binding. The method, then: (§1) At the end of the incubation time, samples were separated by 1.5% agarose (Type I-B) gel electrophoresis and transferred to nitrocellulose membrane (Schleicher & Schuell, Keene, N.H.) in 10×SSC buffer. The membrane was exposed to tritium-sensitive screen and analyzed by phosphoimaging using the Cyclone Storage phosphor system (Packard BioScience, Meridien, Conn.). Image-densitometric analysis was performed using the OptiQuant software (Packard). […] Low molecular weight unincorporated 22i-hydroxycholesterol is separated and eliminated during electrophoresis.

Data set [2] relates to NT2 cells. As to the kind of experiment: BrdU assay, NT2 cell proliferation. It counts as cell-based, human. On the technique in general: Uptake of a labelled nucleoside into DNA is a usual measure of proliferation.
Data set [3] concerns NT2 cells. The data set can be described thus: Expression of neurofilament proteins NF70, NF145, NF200 by NT2 cells (immunoblot). It counts as cell-based, human. The note with it: 6 days. The method, then: Cells were fixed with newly prepared 3.7% formaldehyde for 15 minutes and blocked by blocking reagent (Zymed Laboratories, San Francisco, Calif., USA). Inuunostaining was performed using rabbit anti-NF200, anti-NF145 and anti-NF70 (all at 1:200), and goat anti-GFRα1, anti-GFRα2 and anti-GFRα3 (all at 1:100); Santa Cruz Biotechnology (Santa Cruz, Calif., USA). All antibodies were used at 200 μg/ml. After overnight incubation at 4° C., the immunoreactivity was detected using horseradish peroxidase-conjugated anti-rabbit or anti-mouse IgG for 1 hour at room temperature and visualized using AEC.
Cells were then washed with phosphate-buffered saline (PBS) and lysed with loading buffer. Proteins were resolved by sodium dodecyl sulfate polyacrylamide gel electrophoresis (SDS-PAGE) on 4-20% gradient acrylamide-bis-acrylamide gel at 125 V for 2 hours and electrotransferred onto nitrocellulose membranes. After blocking with 5% nonfat milk, the membranes were subjected to immunoblot analysis by incubation overnight with rabbit anti-NF200, anti-NF145 and anti-NF70 (all at 1:4000) (Chemicon International, Temecula, Calif., USA) and goat anti-GFRα1, anti-GFRα2 and anti-GFRα3 (all at 1:500) (200 μg/ml; Santa Cruz Biotechnology, Inc., Santa Cruz, Calif., USA), goat anti-rabbit or rabbit anti-goat IgG-horseradish peroxidase being used as the secondary antibody (1:5000) (Zymed Laboratories, San Francisco, Calif., USA). Protein bands were visualized using ECL reagents (Amersham Pharmacia Biotech, Piscataway, N.J., USA). Image-densitometric analyses of the immunoreactive protein bands were performed using OptiQuant-image analysis software (Packard BioScience, Meriden, Conn., USA). Glyceraldehyde-3-phosphate dehydrogenase (GAPPH) served as an internal standard.
In general terms: A western blot detects proteins with antibodies after separation by electrophoresis.

The test system of another data set is PC12 cells. The data set can be described thus: Membrane potential (CytoLite luminescence) in Aβ-treated PC12 cells. The class given is cell-based, rat. The method, then: PC12 cells (rat pheochromocytoma neurons) from ATCC (Manassas, Va.) were cultured at 37° C. and 5% CO2 in RPMI 1640 medium devoid of glutamine and supplemented with 10% fetal bovine serum and 5% horse serum. Yao Z, Drieu K and Papadopoulos V., The Gingko biloba extract EGb 761 rescues PC12 neuronal cells from β-amyloid-induced cell death by inhibiting the formation of (3-amyloid-derived diffusible neurotoxic ligands, Brain Res, 889, 181-190 (2001). Cells were seeded in 96-well plates (8×10^4 cells/well). After an overnight period of incubation, increasing concentrations of aggregated Aβ (0.1, 1 and 10 μM) were added to the cells in the presence or absence of the indicated concentrations of the SP compounds to be tested. After 72-hours incubation time various parameters, markers of cell viability, were determined. Mouse MA-10 tumor Leydig cells were maintained at 37° C. in DMEM/Ham's F12 (Biofluids, Rockville, Md.) medium supplemented with 5% heat-inactivated fetal calf serum and 2.5% horse serum in 5% CO2. Cells were plated on 96-well plates at the density of 2.5×10^4 cells/well for overnight. The cells were stimulated with the indicated concentrations of the various SP compounds in 0.2 ml/well serum-free medium for 2 hours. The culture medium was collected and tested for progesterone production by radioimmunoassay.
Cells viability was also assessed using the luminescence-based kit CytoLite™ (Packard BioScience Co.) according to the recommendations of the manufacturer. Briefly, cells were cultured and treated in 96-well plates and after 72-hours incubation time, 25 μl of Activator solution was added to the cells followed by 150 μl of Amplifier solution. Luminescence was measured on a TopCount NXT™ counter (Packard BioSciences Co.) following a 5 minute precount delay.

A further data set concerns the target Aβ25-35 (Homo sapiens, UniProt P05067). The data set can be described thus: CPBBA, Aβ25-35. It counts as binding. The method, then:
as §1

T2 sequence (P05067 688-711 limits assumed): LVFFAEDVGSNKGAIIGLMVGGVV
T1 sequence (P05067 672-713): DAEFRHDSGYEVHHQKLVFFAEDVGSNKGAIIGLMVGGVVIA

Take `CC(C)CC[C@@H](O)[C@@H](C)[C@H]1CC[C@H]2[C@@H]3CC=C4C[C@@H](O)CC[C@]4(C)[C@H]3CC[C@]12C` [SP222, 22R-hydroxycholesterol]: the “percentage of cells in the G2/M phase” value with NT2 cells [1] (from 34.43%) stood at 15.90%. Also, the “percentage of cells in the G0/G1 phase” value with NT2 cells [1] (from 35.32%) was 50.34%. For the same compound, in the data set with rat PC12 neuronal cells (MTT, 25 μM Aβ1-42), the “rescue from 25 μM Aβ-induced cytotoxicity” value is “rescue all the cells; also recorded: full protection”. The “cells rescued in the presence of 50 μM Aβ” value in the data set on rat PC12 neuronal cells (MTT, 50 μM Aβ1-42) turned out to be 50%. In addition, in the data set on rat PC12 neuronal cells (MTT, absence of Aβ), the “PC12 cell viability, steroid alone” value is given as “did not affect PC12 cell viability”. The IC50 in the data set on rat PC12 neuronal cells (Rattus norvegicus, PC-12, read-out: IC50 of protection from Aβ-induced toxicity) is 10 µM. Moreover, the “protection by pretreatment followed by treatment with Aβ” value in the data set on rat PC12 neuronal cells (pretreatment of PC12 cells, data not shown) is on record as “failed to offer any protection”. Also, the “protection against Aβ oligomer-induced toxicity” value in the data set with rat PC12 neuronal cells (soluble Aβ (oligomers), not shown) is “protected”. In addition, at Aβ, the “displacement of radiolabeled 22R-hydroxycholesterol binding to Aβ” value worked out at 80%. In addition, the “binding to Aβ17-40” value on Aβ17-40 (CPBBA) is recorded as “binds”. Besides, the “22R-hydroxycholesterol-binding site in Aβ” value on Aβ17-40 (CPBBA with various Aβ synthetic peptides) is reported as “amino acids 17-40 of Aβ”. In addition, the “NT2 cell proliferation at 25 μM” value in the data set on NT2 cells [2] (25 μM) is “significantly inhibited”. Also, the “NT2 cell proliferation at 50 μM” value in the data set on NT2 cells [2] (50 μM) was “significantly inhibited”. Also, the NF70 protein level with NT2 cells [3] (1 μM) is given as 83 % of the control level; in the data set with NT2 cells [3] (50 μM) it was 18 % of the control level. The NF145 expression result was “increase that was apparent at 5 μM” in the data set on NT2 cells [3] (5 μM) and 56 % of control levels in the data set on NT2 cells [3] (25 μM). Besides, the figures for the NF200 protein expression in the data set with NT2 cells [3] (5 μM) and in the data set on NT2 cells [3] (25 μM) were 210 % of the control value and 180 % of the control value, respectively. For the same compound, the “protection against 0.1 μM Aβ, membrane potential luminescence” value in the data set with PC12 cells (0.1 μM Aβ) is reported as “protected”. In addition, in the data set on PC12 cells (1.0 and 10.0 μM Aβ), the “protection against the two highest concentrations of Aβ, membrane potential luminescence” value was “failed to do so”. Moreover, the “binding to Aβ25-35” value at Aβ25-35 was “did not bind”.

One may read the IC50 as the concentration at which inhibition is half-maximal.

The record behind these values is patent US20060009433A1, “Neuroprotective spirostenol pharmaceutical compositions” (priority 2003, published 2006).
